Laboratory results reported in US12391737B2, “Soluble NPY2 receptor agonists” (Boehringer Ingelheim International GmbH, priority 2020, dated 2025).
Blank lines part the entries; values can stand above or below the molecule they belong to.

Key:
Solubility determination = conditions: for Sol6: pH 6; for Sol7: pH 7
Summary of the method: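 First, TFA-salt peptide was added to 0.1 M sodium diphosphate (pH 6.4 or 7.0) to 10 mg/ml and shaken 2 h at room temperature. Next, insoluble material was filtered off. Finally, filtrate and control, each 1 mg/ml in 50% acetonitrile, were compared by reversed-phase chromatography.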

[1] = target: T1, Human Neuropeptide Y2 Receptor (Homo sapiens, UniProt P49146); assay: Radioligand binding competition assay (RLB); conditions: Table 3, 125I-PYY(1-36) competition; read-out: Ki
T1 construct: purchased CHEMICON HTS066M
T1 sequence (P49146 1-381): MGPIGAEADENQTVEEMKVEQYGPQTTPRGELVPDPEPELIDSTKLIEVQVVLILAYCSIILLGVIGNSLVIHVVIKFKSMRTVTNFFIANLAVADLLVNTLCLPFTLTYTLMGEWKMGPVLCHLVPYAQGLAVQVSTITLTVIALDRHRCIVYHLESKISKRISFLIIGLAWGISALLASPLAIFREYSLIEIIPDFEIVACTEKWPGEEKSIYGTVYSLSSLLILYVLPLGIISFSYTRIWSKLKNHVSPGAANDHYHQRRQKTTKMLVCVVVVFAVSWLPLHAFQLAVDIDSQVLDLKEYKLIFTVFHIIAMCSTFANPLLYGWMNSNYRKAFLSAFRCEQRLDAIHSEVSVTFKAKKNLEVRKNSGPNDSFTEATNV
Summary of the method: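 Receptor membranes, 0.5 μg/well; buffer 50 mM HEPES/5 mM MgCl2/1 mM CaCl2/0.2% ovalbumin, pH 7.4; 2 h RT, shaking. GF/C filtration, cold HEPES/500 mM NaCl wash, scintillation count. IC50 by nonlinear regression.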

Sol6 (Solubility determination): 0.2 mg/mL | Sol7 (Solubility determination): >10.0 mg/mL | Ki [1]: 4 nM
SMILES: CC(C)CC(=O)N[C@@H](C)C(=O)N1CCC[C@H]1C(=O)N[C@@H](C)C(=O)N[C@@H](CCCCNC(=O)CCCCCNC(=O)CC[C@H](NC(=O)CCCCCCCCCCCCCCCCC(=O)O)C(=O)O)C(=O)N1CCC[C@H]1C(=O)N[C@@H](CCC(=O)O)C(=O)N[C@@H](CCC(=O)O)C(=O)N[C@@H](C)C(=O)N[C@@H](C)C(=O)N[C@@H](CCC(=O)O)C(=O)N1CCC[C@H]1C(=O)N[C@@H](CCC(=O)O)C(=O)N[C@@H](CCC(=O)O)C(=O)N[C@@H](CC(C)C)C(=O)N[C@@H](CCC(N)=O)C(=O)N[C@@H](CCCNC(=N)N)C(=O)N[C@@H](Cc1ccc(O)cc1)C(=O)N[C@@H](Cc1ccc(O)cc1)C(=O)N[C@H](C(=O)N[C@@H](C)C(=O)N[C@@H](CC(C)C)C(=O)N[C@@H](CCCNC(=N)N)C(=O)N[C@@H](Cc1c[nH]cn1)C(=O)N[C@@H](Cc1ccc(O)cc1)C(=O)N[C@@H](Cc1ccc(O)cc1)C(=O)N[C@@H](CC(N)=O)C(=O)N[C@@H](Cc1c[nH]c2ccccc12)C(=O)N[C@@H](CC(C)C)C(=O)N[C@H](C(=O)N[C@@H](CCCNC(=N)N)C(=O)N[C@@H](CCC(N)=O)C(=O)N[C@@H](CCCNC(=N)N)C(=O)N[C@@H](Cc1ccc(O)cc1)C(N)=O)[C@@H](C)O)C(C)C [Compound 161, N{alpha-4}-(3-methylbutanoyl)-N{epsilon-7}-(6-[(4S)-4-carboxy-4-(17-carboxyheptadecanamido)butanamido]hexanoyl)-[4A,6A,7K,9E,11A,13E,18Q,22V,23A,28Y,30W,31L]-hPYY(4-36)]

Sol6 (Solubility determination): 9.0 mg/mL | Sol7 (Solubility determination): 9.1 mg/mL | Ki [1]: 2.87 nM
SMILES: CC(C)CC(=O)N[C@@H](C)C(=O)N1CCC[C@H]1C(=O)N[C@@H](C)C(=O)N[C@@H](CCCCNC(=O)CCCCCNC(=O)CC[C@H](NC(=O)CCCCCCCCCCCCCCCCC(=O)O)C(=O)O)C(=O)N1CCC[C@H]1C(=O)N[C@@H](CCC(=O)O)C(=O)N[C@@H](CCC(=O)O)C(=O)N[C@@H](CCC(=O)O)C(=O)N[C@@H](C)C(=O)N[C@@H](CO)C(=O)N1CCC[C@H]1C(=O)N[C@@H](CCC(=O)O)C(=O)N[C@@H](CCC(=O)O)C(=O)N[C@@H](CC(C)C)C(=O)N[C@@H](CCC(N)=O)C(=O)N[C@@H](CCCNC(=N)N)C(=O)N[C@@H](Cc1ccc(O)cc1)C(=O)N[C@@H](Cc1ccc(O)cc1)C(=O)N[C@H](C(=O)N[C@@H](CO)C(=O)N[C@@H](CC(C)C)C(=O)N[C@@H](CCCNC(=N)N)C(=O)N[C@@H](Cc1c[nH]cn1)C(=O)N[C@@H](Cc1ccc(O)cc1)C(=O)N[C@@H](Cc1ccc(O)cc1)C(=O)N[C@@H](CC(N)=O)C(=O)N[C@@H](Cc1c[nH]c2ccccc12)C(=O)N[C@@H](CC(C)C)C(=O)N[C@H](C(=O)N[C@@H](CCCNC(=N)N)C(=O)N[C@@H](CCC(N)=O)C(=O)N[C@@H](CCCNC(=N)N)C(=O)N[C@@H](Cc1ccc(O)cc1)C(N)=O)[C@@H](C)O)C(C)C [Compound 199, N{alpha-4}-(3-methylbutanoyl)-N{epsilon-7}-(6-[(4S)-4-carboxy-4-(17-carboxyheptadecanamido)butanamido]hexanoyl)-[4A,6A,7K,9E,11E,18Q,22V,28Y,30W,31L]-hPYY(4-36)]

Sol6 (Solubility determination): 9.7 mg/mL | Sol7 (Solubility determination): 9.8 mg/mL | Ki [1]: 5.82 nM
SMILES: CC(C)CC(=O)N[C@@H](C)C(=O)N1CCC[C@H]1C(=O)N[C@@H](CCC(=O)O)C(=O)N[C@@H](CCCCNC(=O)CCCCCNC(=O)CC[C@H](NC(=O)CCCCCCCCCCCCCCCCC(=O)O)C(=O)O)C(=O)N1CCC[C@H]1C(=O)N[C@@H](CCC(=O)O)C(=O)N[C@@H](CCC(=O)O)C(=O)N[C@@H](CC(=O)O)C(=O)N[C@@H](C)C(=O)N[C@@H](CCC(=O)O)C(=O)N1CCC[C@H]1C(=O)N[C@@H](CCC(=O)O)C(=O)N[C@@H](CCC(=O)O)C(=O)N[C@@H](CC(C)C)C(=O)N[C@@H](CCC(N)=O)C(=O)N[C@@H](C)C(=O)N[C@@H](Cc1ccc(O)cc1)C(=O)N[C@@H](Cc1ccc(O)cc1)C(=O)N[C@H](C(=O)N[C@@H](CO)C(=O)N[C@@H](CC(C)C)C(=O)N[C@@H](CCCNC(=N)N)C(=O)N[C@@H](Cc1c[nH]cn1)C(=O)N[C@@H](Cc1ccc(O)cc1)C(=O)N[C@@H](Cc1ccc(O)cc1)C(=O)N[C@@H](CC(N)=O)C(=O)N[C@@H](Cc1c[nH]c2ccccc12)C(=O)N[C@@H](CC(C)C)C(=O)N[C@H](C(=O)N[C@@H](CCCNC(=N)N)C(=O)N[C@@H](CCC(N)=O)C(=O)N[C@@H](CCCNC(=N)N)C(=O)N[C@@H](Cc1ccc(O)cc1)C(N)=O)[C@@H](C)O)C(C)C [Compound 169, N{alpha-4}-(3-methylbutanoyl)-N{epsilon-7}-(6-[(4S)-4-carboxy-4-(17-carboxyheptadecanamido)butanamido]hexanoyl)-[4A,7K,9E,13E,18Q,19A,22V,28Y,30W,31L]-hPYY(4-36)]

Further lines, the molecule ahead of its results:

SMILES: CC[C@H](C)[C@H](NC(=O)[C@H](CCC(=O)O)NC(=O)[C@H](CCC(=O)O)NC(=O)[C@@H]1CCCN1C(=O)[C@@H](NC(=O)[C@H](C)NC(=O)[C@H](CC(=O)O)NC(=O)[C@H](CCC(=O)O)NC(=O)[C@H](CCC(=O)O)NC(=O)[C@@H]1CCCN1C(=O)[C@H](CCCCNC(=O)CCCCCNC(=O)CC[C@H](NC(=O)CCCCCCCCCCCCCCCCC(=O)O)C(=O)O)NC(=O)[C@H](CCC(=O)O)NC(=O)[C@@H]1CCCN1C(=O)[C@H](C)NC(=O)CC(C)C)[C@@H](C)O)C(=O)N[C@@H](CCC(N)=O)C(=O)N[C@@H](CCCNC(=N)N)C(=O)N[C@@H](Cc1ccc(O)cc1)C(=O)N[C@@H](Cc1ccc(O)cc1)C(=O)N[C@H](C(=O)N[C@@H](CO)C(=O)N[C@@H](CC(C)C)C(=O)N[C@@H](CCCNC(=N)N)C(=O)N[C@@H](Cc1c[nH]cn1)C(=O)N[C@@H](Cc1ccc(O)cc1)C(=O)N[C@@H](CCC(N)=O)C(=O)N[C@@H](CC(N)=O)C(=O)N[C@@H](Cc1c[nH]c2ccccc12)C(=O)N[C@@H](CC(C)C)C(=O)N[C@H](C(=O)N[C@@H](CCCNC(=N)N)C(=O)N[C@@H](CCC(N)=O)C(=O)N[C@@H](CCCNC(=N)N)C(=O)N[C@@H](Cc1ccc(O)cc1)C(N)=O)[C@@H](C)O)C(C)C [Compound 113, N{alpha-4}-(3-methylbutanoyl)-N{epsilon-7}-(6-[(4S)-4-carboxy-4-(17-carboxyheptadecanamido)butanamido]hexanoyl)-[4A,7K,9E,13T,17I,18Q,22V,28Q,30W,31L]-hPYY(4-36)]
Sol6 (Solubility determination): >10.0 mg/mL | Sol7 (Solubility determination): 10.0 mg/mL | Ki [1]: 3.53 nM

SMILES: CC(C)CC(=O)N[C@@H](C)C(=O)N1CCC[C@H]1C(=O)N[C@@H](CCC(=O)O)C(=O)N[C@@H](CCCCNC(=O)CCCCCNC(=O)CC[C@H](NC(=O)CCCCCCCCCCCCCCCCC(=O)O)C(=O)O)C(=O)N1CCC[C@H]1C(=O)N[C@@H](CCC(=O)O)C(=O)N[C@@H](CCC(=O)O)C(=O)N[C@@H](CC(=O)O)C(=O)N[C@@H](C)C(=O)N[C@H](C(=O)N1CCC[C@H]1C(=O)N[C@@H](CCC(=O)O)C(=O)N[C@@H](CCC(=O)O)C(=O)N[C@@H](CC(C)C)C(=O)N[C@@H](CCC(N)=O)C(=O)N[C@@H](CC(C)C)C(=O)N[C@@H](Cc1ccc(O)cc1)C(=O)N[C@@H](Cc1ccc(O)cc1)C(=O)N[C@H](C(=O)N[C@@H](CO)C(=O)N[C@@H](CC(C)C)C(=O)N[C@@H](CCCNC(=N)N)C(=O)N[C@@H](Cc1c[nH]cn1)C(=O)N[C@@H](Cc1ccc(O)cc1)C(=O)N[C@@H](Cc1ccc(O)cc1)C(=O)N[C@@H](CC(N)=O)C(=O)N[C@@H](Cc1c[nH]c2ccccc12)C(=O)N[C@@H](CC(C)C)C(=O)N[C@H](C(=O)N[C@@H](CCCNC(=N)N)C(=O)N[C@@H](CCC(N)=O)C(=O)N[C@@H](CCCNC(=N)N)C(=O)N[C@@H](Cc1ccc(O)cc1)C(N)=O)[C@@H](C)O)C(C)C)[C@@H](C)O [Compound 130, N{alpha-4}-(3-methylbutanoyl)-N{epsilon-7}-(6-[(4S)-4-carboxy-4-(17-carboxyheptadecanamido)butanamido]hexanoyl)-[4A,7K,9E,13T,18Q,19L,22V,28Y,30W,31L]-hPYY(4-36)]
Sol6 (Solubility determination): 9.9 mg/mL | Sol7 (Solubility determination): 10.0 mg/mL | Ki [1]: 9.36 nM

SMILES: CC(C)CC(=O)N[C@@H](C)C(=O)N1CCC[C@H]1C(=O)N[C@@H](CCC(=O)O)C(=O)N[C@@H](CCCCNC(=O)CCCCCNC(=O)CC[C@H](NC(=O)CCCCCCCCCCCCCCCCC(=O)O)C(=O)O)C(=O)N1CCC[C@H]1C(=O)N[C@@H](CCC(=O)O)C(=O)N[C@@H](CCC(=O)O)C(=O)N[C@@H](CC(=O)O)C(=O)N[C@@H](C)C(=O)N[C@H](C(=O)N1CCC[C@H]1C(=O)N[C@@H](CCC(=O)O)C(=O)N[C@@H](CCC(=O)O)C(=O)N[C@H](C(=O)N[C@@H](CCC(N)=O)C(=O)N[C@@H](CCCNC(=N)N)C(=O)N[C@@H](Cc1ccc(O)cc1)C(=O)N[C@@H](Cc1ccc(O)cc1)C(=O)N[C@H](C(=O)N[C@@H](CO)C(=O)N[C@@H](CC(C)C)C(=O)N[C@@H](CCCNC(=N)N)C(=O)N[C@@H](Cc1c[nH]cn1)C(=O)N[C@@H](Cc1ccc(O)cc1)C(=O)N[C@@H](Cc1ccc(O)cc1)C(=O)N[C@@H](CC(N)=O)C(=O)N[C@@H](Cc1c[nH]c2ccccc12)C(=O)N[C@@H](CC(C)C)C(=O)N[C@H](C(=O)N[C@@H](CCCNC(=N)N)C(=O)N[C@@H](CCC(N)=O)C(=O)N[C@@H](CCCNC(=N)N)C(=O)N[C@@H](Cc1ccc(O)cc1)C(N)=O)[C@@H](C)O)C(C)C)[C@@H](C)O)[C@@H](C)O [Compound 152, N{alpha-4}-(3-methylbutanoyl)-N{epsilon-7}-(6-[(4S)-4-carboxy-4-(17-carboxyheptadecanamido)butanamido]hexanoyl)-[4A,7K,9E,13T,17T,18Q,22V,28Y,30W,31L]-hPYY(4-36)]
Sol6 (Solubility determination): 8.8 mg/mL | Sol7 (Solubility determination): 8.8 mg/mL | Ki [1]: 1.32 nM
